According to patent US20040241154A1, “Secretin for the treatment of asthma” (priority 2001, published 2004):

Key:
[1] = system: primary human, tertiary bronchial epithelial cells; test: Cl- efflux from primary human tertiary bronchial epithelial cells (MQAE fluorescence); assay type: cell-based
Protocol: Ionic movement in tertiary bronchial epithelial cells was further characterised with the use of the Cl^− specific fluorescent probe MQAE (n-(ethoxycarbonylmethyl)-6-methoxyquinolinium bromide; Molecular Probes). In brief, primary human, tertiary bronchial epithelial cells were isolated as described above and cultured in a 96 well plate. On reaching confluency, cells were loaded overnight with 4 mM MQAE. Cells were washed in a chloride containing HEPES buffer, before passive Cl^− efflux was initiated by the addition of a Cl^− free buffer.
The experiment of example 3a above was repeated using a range of secretin concentrations from 1 to 1000 nM.

human tertiary bronchus = test: Short circuit current across human tertiary bronchus wall in modified Ussing chamber
[2] = system: epithelial cells derived from the human tertiary bronchus; test: Short circuit current in cultured tertiary bronchial epithelial cell monolayers in modified Ussing chamber; assay type: cell-based
Source text: Functional effects of the secretin receptor were probed in epithelial cells derived from the human tertiary bronchus. In brief, tertiary bronchial epithelial were isolated by overnight protease digestion and then cultured until confluency on Snapwell (Costar) permeable supports. The supports were mounted in a modified Ussing chamber, and both luminal and basolateral membranes were bathed in oxygenated Krebs extracellular solution. The cells were voltage clamped to zero to allow changes in short circuit current in response to secretin to be measured. As previously described, 10 μM amiloride was initially added to the luminal membrane (FIG. 4, point a) followed by the addition of 100 nM secretin to the luminal membrane (FIG. 4, point b).

tertiary bronchial rings = test: Relaxation of carbachol precontracted human tertiary bronchial rings in organ bath
Protocol: The bronchorelaxant properties of secretin was examined in vitro, in the tertiary bronchus of non-diseased tissue. […] Tissues were precontracted with carbachol at the concentration being that which caused a contraction approximately 60-70% of the maximum, and a cumulative concentration-effect contractile curve (CEC) to secretin (0.01 μM to 3 μM) was constructed on each preparation.

[3] = 10 μM ATP or UTP added to apical membrane of the lung epithelium

How did the “effect on 100 nM secretin mediated changes in fluorescence” value ([1]; 100 μM NPPB) turn out when `O=C(O)c1cc([N+](=O)[O-])ccc1NCCCc1ccccc1` [NPPB, 5-nitro-2-(3-phenylpropyl-amino)benzoic acid] was run?
The value was “abolished”.

Which “ionic movement (short circuit current)” value (human tertiary bronchus; [3]) does the source give for `O=c1ccn([C@@H]2O[C@H](COP(=O)(O)OP(=O)(O)OP(=O)(O)O)[C@@H](O)[C@H]2O)c(=O)[nH]1` [UTP] here?
Its value is “stimulate a similar ionic movement of similar magnitude”.

For `Nc1ncnc2c1ncn2[C@@H]1O[C@H](COP(=O)(O)OP(=O)(O)OP(=O)(O)O)[C@@H](O)[C@H]1O` [ATP], which “ionic movement (short circuit current)” value (human tertiary bronchus; [3]) is on record?
Its value is “stimulate a similar ionic movement of similar magnitude”.

With `CC(C)C[C@H](NC(=O)CNC(=O)[C@H](CCC(N)=O)NC(=O)[C@H](CC(C)C)NC(=O)[C@H](CC(C)C)NC(=O)[C@H](CCCNC(=N)N)NC(=O)[C@H](CCC(N)=O)NC(=O)[C@H](CC(C)C)NC(=O)[C@H](CCCNC(=N)N)NC(=O)[C@H](C)NC(=O)CNC(=O)[C@H](CCC(=O)O)NC(=O)[C@H](CCCNC(=N)N)NC(=O)[C@H](CC(C)C)NC(=O)[C@H](CCCNC(=N)N)NC(=O)[C@H](CO)NC(=O)[C@H](CC(C)C)NC(=O)[C@H](CCC(=O)O)NC(=O)[C@H](CO)NC(=O)[C@@H](NC(=O)[C@H](Cc1ccccc1)NC(=O)[C@@H](NC(=O)CNC(=O)[C@H](CC(=O)O)NC(=O)[C@H](CO)NC(=O)[C@@H](N)Cc1c[nH]cn1)[C@@H](C)O)[C@@H](C)O)C(=O)N[C@H](C(N)=O)C(C)C` [secretin] as the molecule, how does the “ionic movement (short circuit current)” value (human tertiary bronchus; 3 μM human secretin added to luminal membrane after 10 μM amiloride, non-asthma donors) read?
Its value is “stimulate ionic movement in a manner consistent with the movement of a negatively charged ion”.

And the “ionic movement (short circuit current)” value ([2]; 100 nM secretin added to luminal membrane after 10 μM amiloride)?
Its value is “stimulated ionic movement in a manner consistent with the movement of a negatively charged ion”.

And the “mean pEC50, relaxation” value (tertiary bronchial rings; carbachol precontracted tertiary bronchial rings)?
Its value is 6.8±0.2.

And the “relaxations of the carbachol-evoked tone” value (tertiary bronchial rings; secretin 0.01 μM to 3 μM, in 7 of the 8 preparations tested)?
Its value is “concentration-dependent relaxations”.

And the “mean relaxation as % of the relaxation observed to isoprenaline (1 μM)” value (tertiary bronchial rings; secretin 3 μM, n=7 preparations from 4 donors)?
The value was 37±11%.

What about the “Cl- efflux (changes in MQAE fluorescence)” value ([1]; 12.5 nM secretin) of the same molecule?
Its value is “stimulated Cl^− efflux”.

And the “Cl- efflux (changes in MQAE fluorescence)” value ([1]; 100 nM secretin)?
Its value is “stimulated Cl^− efflux”.

What about the “Maximal secretin stimulated Cl- efflux” value ([1]; compared with Prostaglandin E2 (10 μM), secretin 1 to 1000 nM) of the same molecule?
Its value is “of a similar magnitude to that observed to Prostaglandin E2”.

What about the “Log EC50 (M), Cl- efflux” value ([1]; printed as negative Log EC50, mean ± s.e.mean, 2 to 6 independent experiments, cells from 6 donors, normalised to PGE2) of the same molecule?
Its value is -7.64±0.24 M.

`COc1ccc(Cl)cc1C(=O)NCCc1ccc(S(=O)(=O)NC(=O)NC2CCCCC2)cc1` [glibenclamide] was tested. Which “suppression of secretin mediated ionic movement” value ([2]; 500 μM glibenclamide after 100 nM secretin) did it give?
The value was “failed to suppress secretin mediated ionic movement”.
